In this assay the test system is HR+, HER2− metastatic or loco-regionally recurrent breast cancer. Description: SERENA-2 phase 2 study: clinical benefit rate at 24 weeks (CBR24). The following applies: for Adjusted CBR24 rate (%): logistic regression, factors prior CDK4/6 inhibitor and lung and/or liver metastasis; for CBR24: comparison against fulvestrant, odds ratio: odds ratio > 1 favors AZD9833. Format: in vivo, human (post-menopausal women).
Text: (§1) The CBR24 is defined as the percentage of patients who have a best objective response (BoR) of CR or PR in the first 25 weeks (to allow for a late assessment within the assessment window) or who have SD (without subsequent cancer therapy) for at least 23 weeks after start of treatment (to allow for an early assessment within the assessment window). The CBR is defined based on the Investigator's assessment of RECIST 1.1.
The CBR24 will be summarised by treatment group and analysed using a logistic regression model (similarly to the analysis for the ORR).
as §1, with “Secondary endpoints: clinical benefit rate at 24 weeks. The CBR24” for “The CBR24”, “The CBR will be defined based” for “The CBR is defined based”, “assessment of RECIST, and will be summarised by treatment group and analysed using a logistic regression model (similarly to the analysis for the ORR).” for “assessment of RECIST 1.1.”

With `C[C@@H]1Cc2c(ccc3[nH]ncc23)[C@@H](c2ccc(NC3CN(CCCF)C3)cn2)N1CC(F)(F)F` [camizestrant, N-(1-(3-fluoropropyl)azetidin-3-yl)-6-((6S,8R)-8-methyl-7-(2,2,2-trifluoroethyl)-6,7,8,9-tetrahydro-3H-pyrazolo[4,3-f]isoquinolin-6-yl)pyridin-3-amine], where the note is “AZD9833 75 mg”, the “(%) of patients with clinical benefit at 24 weeks” value (from here on “(%) of patients”) came to 48.6%; the “Adjusted CBR24 rate (%)” value is 50.4%; the “CBR24: comparison against fulvestrant, odds ratio” value stood at 1.73. Under “AZD9833 75 mg, N=70 evaluable”, the “Number of patients with clinical benefit at 24 weeks” value (“Number of patients” below) amounted to 34. Moreover, for the setting “AZD9833 150 mg”, the “(%) of patients” value was found to be 52.3%; the “Adjusted CBR24 rate (%)” value is listed as 55.2%; the “CBR24: comparison against fulvestrant, odds ratio” value came out at 2.09. Besides, under “AZD9833 150 mg, N=65 evaluable”, the “Number of patients” value is listed as 34.

On to `C[C@]12CC[C@@H]3c4ccc(O)cc4C[C@@H](CCCCCCCCC[S+]([O-])CCCC(F)(F)C(F)(F)F)[C@H]3[C@@H]1CC[C@@H]2O` (some centres unmarked) [fulvestrant, reference compound], for which, for the setting “fulvestrant”, the “(%) of patients” value is 36.8% and the “Adjusted CBR24 rate (%)” value came out at 37.1%. Also, the “Number of patients” value (fulvestrant, N=68 evaluable) turned out to be 25.

(Values after patent publication US20240180893A1, “METHODS OF TREATMENT OF BREAST CANCER” (AstraZeneca AB, priority 2022, published 2024).)
